Data published in patent US20110236406A1, “IMMUNOGENIC COMPOSITIONS COMPRISING HMGB1 POLYPEPTIDES” (MedImmune, LLC, priority 2004, published 2011).
No end group written: not given here. *: point of attachment. Biotin = O=C1N[C@H]2[C@H](CS[C@H]2CCCCC(=O)*)N1

How the values were obtained:
[1] = tested on: B box-induced DC maturation; test: Signalling inhibitors on B box-induced CD83 upregulation and IL-6 secretion in DCs; format: cell-based, human; conditions: 30 min preincubation, then rB box 100 μg/ml, 48 h; SB203580 5 or 20 μM, PD98059 and TPCK 20 or 80 μM
Procedure: FIG. 6. B box causes […] upregulation and IL-6 secretion via a p38 dependent pathway. Immature d7 DCs were preincubated for 30 min with (i) DMSO, (ii) PD98059 at 20 (P20) or 80 (P80) μM, (iii) SB203580 at 5 (S5) or 20 (S20) μM, (iv) TPCK at 20 (T20) or 80 (T80) μM and then treated with rB box (100 μg/ml), or cultured with DMSO in the absence of B box (medium). 48 h after activation the DCs were assayed for the surface expression of CD83 by FACS and IL-6 secretion was measured by ELISA. The results shown are mean+/−SEM of three independent experiments using DCs generated from different donors.
The p38 MAPK-specific inhibitor, SB203580, a pyridinyl imidazole compound, the MEK inhibitor PD98059, and N-tosyl-L-phenylalanine chloromethyl ketone (TPCK) were purchased from Sigma. Because these required solubilization in DMSO, DMSO was used as a negative control.
To obtain insight into the roles of ERK and p38 MAPK pathways in B box-induced DC maturation, we used their specific inhibitors, PD98059 and SB203580, respectively. To analyze the role of NF-κB we used TPCK, a serine protease inhibitor that blocks nuclear translocation of Rel/NF-κB by preventing IκB degradation.

murine BM-DCs [2] = test: Phenotypic maturation of murine BM-DCs (surface markers, FACS); format: cell-based, mouse; conditions: CD11c+ gated BM-DCs, 48 h; HMGB1-Bx 50 μg/ml, peptides 200 μg/ml
Procedure: (§1) Bone marrow-derived DCs (BM-DC) were generated using modifications of the original method described by Inaba et al (42). In brief, bone marrow suspensions were incubated with red cell lysis buffer (PUREGENE™ RBC Lysis Solution, Gentra Systems, Minneapolis, Minn.) to remove red blood cells. After washing in media, lymphocytes and Ia-positive cells were killed with a cocktail of mAbs and rabbit complement for 60 min at 37° C. The mAbs were GK1.5 anti-CD4, TIB211 anti-CD8, TIB 120 anti-Ia, and TM 146 anti B220 (The Abs were kindly provided by Dr. Ralph Steinman). The cells were subsequently cultured in media containing 5% FCS and 10 ng/ml recombinant mouse GM-CSF (R&D Systems; Minneapolis, Minn.) for 7 days. For some experiments the cells were further purified at day 7 using CD11c^+-microbeads (Miltenyi Biotech., Auburn, Calif.) according to the manufacturer's instructions.
(§2) At day 7 of culture, immature DCs were either left untreated, or were stimulated with indicated doses of HMGB1-Bx, HMGB1 peptides, or LPS (E. coli serotype 026:B6, Sigma). In all experiments, DCs were analyzed 48 h after stimulation.
1×10^4 DCs were reacted for at least 20 min at 4° C. in 100 μl of PBS/5% FCS/0.1% sodium azide (staining buffer) with fluorescein isothiocyanate (FITC)-conjugated IgG mAb specific for CD86, CD40 and MHC-II (eBioscience). Cells were then washed 4 times with staining buffer, fixed in 10% formaldehyde in PBS (pH 7.2-7.4) and examined by flow cytometry using a FACScan (BD). In all experiments, isotype controls were included using FITC-conjugated irrelevant mAb of the same Ig class.

murine BM-DCs [3] = test: Cytokine and chemokine secretion by murine bone marrow-derived DCs (ELISA); format: cell-based, mouse; parameters: key to TNFα / IL-18 / IL-8 / IL-10 / IL-2 / IL-1β / IL-5 / IL-6 / IL-12: + indicates increase; − indicates no change compared to medium
Procedure: as §1, §2
(§3) 48 h post activation, the production of cytokines and chemokines in cell culture supernatants was measured by ELISA (Pierce Boston Technology Center, SearchLight™ Proteome Arrays Multiplex Sample Testing Services, Woburn, Mass.).

allogeneic T cells = test: Mixed leukocyte reaction, stimulated murine BM-DCs with allogeneic T cells; format: cell-based, mouse; conditions: BM-DCs from C57/BL6 mice; HMGB1-Bx 50 μg/ml, peptides 200 μg/ml, 48 h; 5-day co-culture
Procedure: T cells were isolated by negative selection using the mouse SpinSep antibody cocktail from StemCell Technologies (Vancouver, Calif.) according to the manufacturer's instructions. The cell purity of the isolated T cells was routinely ˜99% pure.
To assess levels of T cell activation and proliferation, cells were plated at 10^5 cells per well in a round-bottomed 96-well tray at DC:T cell ratios of 1:120 for 5 days in medium described above. The microcultures were pulsed with (^3H)-thymidine (1 μCi/well) for the final 8 h of culture. Cell cultures were harvested onto glass fiber filters with an automated multiple sample harvester and the amount of isotope incorporation was determined by liquid scintillation β-emission. Responses are reported as mean cpm of thymidine incorporation by triplicate cultures (+/−SEM).

[4] = tested on: human monocyte-derived DCs; test: Cytokine and chemokine secretion by human immature monocyte-derived DCs (ELISA); format: cell-based; parameters: key to TNFα / IL-18 / IL-8 / IL-10 / IL-6 / IL-12: + indicates increase; − indicates no change compared to medium
Procedure: (§4) PBMCs were isolated from the blood of normal volunteers (Long Island Blood Services, Melville, N.Y.) over a Ficoll-Hypaque (Amersham Biosciences, Uppsala, Sweden) density gradient. CD14^+ monocytes were isolated from PBMCs by positive selection using anti-CD14 beads (Miltenyi Biotech., Auburn, Calif.) following the manufacturer's instructions. To generate DCs, CD14^+ cells were cultured in RPMI 1640 medium supplemented with 2 mM L-glutamine (GIBCO-BRL Life Technologies; Grand Island, N.Y.), 50 μM 2-mercaptoethanol (Sigma, St. Louis, Mo.), 10 mM HEPES (GIBCO-BRL), penicillin (100 U/ml)-streptomycin (100 μg/ml) (GIBCO-BRL), and 5% human AB serum (Gemini Bio-Products, Woodland, Calif.). Cultures were maintained for 7 days in 6-well trays (3×10^6 cells/well) supplemented with 1000 U GM-CSF per ml (Immunex, Seattle, Wash.) and 200 U IL-4 per ml (R&D Systems; Minneapolis, Minn.) at days 0, 2, 4 and 6.
At day 7 of culture, immature DCs were either left untreated (“immature”, IM), or were stimulated with indicated doses of (i) LPS (E. coli serotype 026:B6, Sigma), (ii) 500 ng/ml of trimeric CD40L (Alexis Biochemicals; San Diego, Calif.), (iii) a cocktail of cytokines (CyC) consisting of IL-6 at 1000 U/ml, TNFα at 10 ng/ml, IL-1β at 10 ng/ml (all from R&D Systems) and prostaglandin E2 (PGE-2) at 1 μg/ml (Sigma), or with (v) non-methylated CpG oligonucleotides (5′ […] 3′) at 30 μg/ml. The sequence of this oligonucleotide is known to induce DC maturation (4), except that it contains an unmodified phosphodiester backbone. In all experiments, DCs were analyzed 48 h after stimulation. All experiments using the rB box were performed in the presence of polymyxin B sufficient to neutralize greater than 10-fold more LPS than present in rB box preparations.
as §3
as §4, with “DCs, CD 14^+” for “DCs, CD14^+”
as §2

[5] = Murine DC, ELISA 48 h after exposure, compared to medium
[6] = peptides 200 μg/ml, HMGB1-Bx 50 μg/ml, polymyxin B, 48 h
[7] = HUMAN DC, ELISA 48 h after exposure, compared to medium

C[S+]([O-])c1ccc(-c2nc(-c3ccncc3)c(-c3ccc(F)cc3)[nH]2)cc1 (stereo not shown) [SB203580] was tested, and the “B box induced secretion of IL-6” value [1] was “downregulated” and the “B box-induced upregulation of CD83” value [1] was “completely abrogated”.
For “YAFFVQTCREEHKKKHPD (Biotin-YAFFVQTCREEHKKKHPD; listed as Homo sapiens) [Hp-16]”, the CD40 expression (murine BM-DCs [2]) was “strong upregulation”, the CD86 expression (murine BM-DCs [2]) was “strong upregulation” and the MHC-II expression (murine BM-DCs [2]) was “strong upregulation”. For the same molecule, the IL-1β (murine BM-DCs [3]; [5]) was “+”, the IL-2 (murine BM-DCs [3]; [5]) was “+” and the IL-5 (murine BM-DCs [3]; [5]) was “+”. The IL-6 (murine BM-DCs [3]; [5]) was “−”, the IL-8 (murine BM-DCs [3]; [5]) was “−” and the IL-10 (murine BM-DCs [3]; [5]) was “−”. For the same molecule, the IL-12 (murine BM-DCs [3]; [5]) was “+”, the IL-18 (murine BM-DCs [3]; [5]) was “+” and the TNFα (murine BM-DCs [3]; [5]) was “−”. The “activation of murine BM-DCs” value (murine BM-DCs [3]; peptides 200 μg/ml, 48 h) was “activated”, the “secretion of IL-2” value (murine BM-DCs [3]; [6]) was “enhanced secretion” and the “secretion of IL-5” value (murine BM-DCs [3]; [6]) was “enhanced secretion”. For the same molecule, the “secretion of IL-12 (p70)” value (murine BM-DCs [3]; [6]) was “enhanced secretion”, the “secretion of IL-18” value (murine BM-DCs [3]; [6]) was “enhanced secretion” and the “secretion of IL-10” value (murine BM-DCs [3]; peptides 200 μg/ml, polymyxin B, 48 h) was “enhanced secretion”. For the same molecule, the “T cell stimulatory activity of exposed BM-DCs in mixed lymphocyte reaction” value (allogeneic T cells) was “activated resting allogeneic T cells”, the “activation of human DCs” value ([4]; Example 2, peptides 200 μg/ml, 48 h) was “no effect” and the IL-6 [4, 7] was “−”. The IL-8 [4, 7] was “−”, the IL-10 [4, 7] was “−” and the IL-12 [4, 7] was “−”. For the same molecule, the IL-18 [4, 7] was “−” and the TNFα [4, 7] was “−”.
